Usually EC50 stands for the concentration that produces a half-maximal response. For orientation: pEC50 means −log10 of the EC50, conventionally taken in molar units.

The values below come from patent publication US11040959B2, “Diprovocims: a new and potent class of TLR agonists” (The Scripps Research Institute, priority 2016, dated 2021).

Structures are written as SMILES. pEC50: −log10 of the molar value. Like-named read-outs stand apart in the source and are kept apart here.

Test [1] deals with mouse macrophages. The test can be described thus: stimulated release of TNF-α from mouse macrophages. Type of test: cell-based. The settings on record: for EC50: read-out: EC50 (nM) (mouse). In outline:
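EC50 derived from dose-response curves for stimulated TNF-α release from mouse macrophages.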

Test [2] relates to differentiated human THP-1 cells. Description: stimulated release of TNF-α from differentiated human THP-1 cells (ELISA, dose-response). The settings on record: for EC50: read-out: EC50 (nM) (THP-1). Type of test: cell-based. In outline:
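Human THP-1 cells were PMA-differentiated toward macrophages, and stimulated TNF-α release was measured by ELISA. EC50 values were taken from dose-response curves.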
Background: An ELISA detects its analyte on a solid surface through an enzyme-linked reagent.

Where [3] appears, read: Macrophage, table of 133-139 (two lipid side chains), mouse macrophages.
The mark [4] stands for this setting: Homo sapiens, THP-1, table of 133-139 (two lipid side chains), human THP-1 cells.
[5] abbreviates: Macrophage, table of 140-146 (four lipid side chains), mouse macrophages.
Where [6] appears, read: Homo sapiens, THP-1, table of 140-146 (four lipid side chains), human THP-1 cells.
The mark [7] stands for this setting: Macrophage, table of functionalized derivatives 147-151, mouse macrophages.
Setting [8] is: Homo sapiens, THP-1, table of functionalized derivatives 147-151, human THP-1 cells.

Consider `CCCCCCCCCCNC(=O)[C@H]1CCN(C(=O)c2ccc(C(=O)N3C[C@@H](C(=O)N[C@H]4C[C@@H]4c4ccccc4)[C@H](C(=O)N[C@H]4C[C@@H]4c4ccccc4)C3)cc2)C1` [Compound 132, (3S,4S)-1-(4-((S)-3-(Decylcarbamoyl)pyrrolidine-1-carbonyl)benzoyl)—N^3,N^4-bis((1S,2R)-2-phenyl-cyclopropyl)pyrrolidine-3,4-dicarboxamide], for which the EC50 is 1800 nM in test [1] (Macrophage, table of 125-132 (one lipid side chain, R and S), mouse macrophages); 33 nM in test [2] (Homo sapiens, THP-1, table of 125-132 (one lipid side chain, R and S), human THP-1 cells).
Regarding `CCCCCCCCCCCCCCCCNC(=O)[C@@H]1CN(C(=O)c2ccc(C(=O)N3C[C@@H](C(=O)N[C@H]4C[C@@H]4c4ccccc4)[C@H](C(=O)N[C@H]4C[C@@H]4c4ccccc4)C3)cc2)C[C@H]1C(=O)NCCCCCCCCCCCCCCCC` [Compound 133, (3S,4S)-1-(4-((3S,4S)-3,4-Bis(((1S,2R)-2-phenyl-cyclopropyl)carbamoyl)pyrrolidine-1-carbonyl)-benzoyl)-N^3,N^4-dihexadecylpyrrolidine-3,4-dicarboxamide], the EC50 was found to be 1000 nM in test [1] (setting [3]) and 2.5 nM in test [2] (setting [4]).
Taken in the same sequence, the figures for `CCCCCCCCCCCCCCNC(=O)[C@@H]1CN(C(=O)c2ccc(C(=O)N3C[C@@H](C(=O)N[C@H]4C[C@@H]4c4ccccc4)[C@H](C(=O)N[C@H]4C[C@@H]4c4ccccc4)C3)cc2)C[C@H]1C(=O)NCCCCCCCCCCCCCC` [Compound 134, (3S,4S)-1-(4-((3S,4S)-3,4-Bis(((1S,2R)-2-phenylcyclopropyl)carbamoyl)pyrrolidine-1-carbonyl)benzoyl)-N^3,N^4-ditetradecylpyrrolidine-3,4-dicarboxamide] were 620 nM and 1.3 nM.
The matching figures for `CCCCCCCCCCCCNC(=O)[C@@H]1CN(C(=O)c2ccc(C(=O)N3C[C@@H](C(=O)N[C@H]4C[C@@H]4c4ccccc4)[C@H](C(=O)N[C@H]4C[C@@H]4c4ccccc4)C3)cc2)C[C@H]1C(=O)NCCCCCCCCCCCC` [Compound 135, (3S,4S)-1-(4-((3S,4S)-3,4-Bis(((1S,2R)-2-phenylcyclopropyl)carbamoyl)pyrrolidine-1-carbonyl)benzoyl)-N^3,N^4-didodecylpyrrolidine-3,4-dicarboxamide]: 1000 nM and 1 nM.
On to `CCCCCCCCCCNC(=O)[C@@H]1CN(C(=O)c2ccc(C(=O)N3C[C@@H](C(=O)N[C@H]4C[C@@H]4c4ccccc4)[C@H](C(=O)N[C@H]4C[C@@H]4c4ccccc4)C3)cc2)C[C@H]1C(=O)NCCCCCCCCCC` [Compound 136, (3S,4S)-1-(4-((3S,4S)-3,4-Bis(((1S,2R)-2-phenylcyclopropyl)carbamoyl)pyrrolidine-1-carbonyl)benzoyl)-N^3,N^4-didecylpyrrolidine-3,4-dicarboxamide], for which the EC50 in test [1] (setting [3]) is 60 nM; in test [2] (setting [4]), 0.28 nM.
Taken in the same sequence, the figures for `CCCCCCCCNC(=O)[C@@H]1CN(C(=O)c2ccc(C(=O)N3C[C@@H](C(=O)N[C@H]4C[C@@H]4c4ccccc4)[C@H](C(=O)N[C@H]4C[C@@H]4c4ccccc4)C3)cc2)C[C@H]1C(=O)NCCCCCCCC` [Compound 137, (3S,4S)-1-(4-((3S,4S)-3,4-Bis(((1S,2R)-2-phenylcyclopropyl)carbamoyl)pyrrolidine-1-carbonyl)benzoyl)-N^3,N^4-dioctylpyrrolidine-3,4-dicarboxamide] were 10 nM and 0.17 nM.
For `CCCCCCNC(=O)[C@@H]1CN(C(=O)c2ccc(C(=O)N3C[C@@H](C(=O)N[C@H]4C[C@@H]4c4ccccc4)[C@H](C(=O)N[C@H]4C[C@@H]4c4ccccc4)C3)cc2)C[C@H]1C(=O)NCCCCCC` [Compound 138, (3S,4S)-1-(4-((3S,4S)-3,4-Bis(((1S,2R)-2-phenylcyclopropyl)carbamoyl)-pyrrolidine-1-carbonyl)benzoyl)-N^3,N^4-dihexylpyrrolidine-3,4-dicarboxamide], the EC50 turned out to be 4 nM in test [1] (setting [3]) and 0.18 nM in test [2] (setting [4]). The pEC50 was 8.40 in test [1] (Mus musculus, Macrophage, read-out: EC50, stimulated release of TNF-α from mouse macrophages) and 9.74 in test [2] (Homo sapiens, THP-1, running text, read-out: EC50, stimulated release of TNF-α from differentiated human THP-1 cells). Moreover, the “fold less potent/effective than diprovocim-1” value in test [1] (mouse macrophages) amounted to 4 fold. The “fold less active/potent than diprovocim-1 (3)” value in test [2] (human THP-1 cells) is given as 2 fold. Moreover, the “potency differential human THP-1 cells versus mouse macrophages” value in test [2] (ratio of mouse to human potency) is given as 20 fold.
Take `CCCCNC(=O)[C@@H]1CN(C(=O)c2ccc(C(=O)N3C[C@@H](C(=O)N[C@H]4C[C@@H]4c4ccccc4)[C@H](C(=O)N[C@H]4C[C@@H]4c4ccccc4)C3)cc2)C[C@H]1C(=O)NCCCC` [Compound 139, (3S,4S)-1-(4-((3S,4S)-3,4-Bis(((1S,2R)-2-phenylcyclopropyl)carbamoyl)pyrrolidine-1-carbonyl)benzoyl)-N^3,N^4-dibutylpyrrolidine-3,4-dicarboxamide]: the EC50 in test [1] (setting [3]) was determined as 360 nM; in test [2] (setting [4]), 50 nM.
Consider `CCCCCCCCCCCCCCCCNC(=O)[C@@H]1CN(C(=O)c2ccc(C(=O)N3C[C@@H](C(=O)NCCCCCCCCCCCCCCCC)[C@H](C(=O)NCCCCCCCCCCCCCCCC)C3)cc2)C[C@H]1C(=O)NCCCCCCCCCCCCCCCC` [Compound 140, (3S,3′S,4S,4′S)-1,1′-Terephthaloylbis(N^3,N^4-dihexadecylpyrrolidine-3,4-dicarboxamide)], for which the EC50 in test [1] (setting [5]) and in test [2] (setting [6]) was above 5000 nM throughout.
On to `CCCCCCCCCCCCCCNC(=O)[C@@H]1CN(C(=O)c2ccc(C(=O)N3C[C@@H](C(=O)NCCCCCCCCCCCCCC)[C@H](C(=O)NCCCCCCCCCCCCCC)C3)cc2)C[C@H]1C(=O)NCCCCCCCCCCCCCC` [Compound 141, (3S,3′S,4S,4′S)-1,1′-Terephthaloylbis(N^3,N^4-ditetradecylpyrrolidine-3,4-dicarboxamide)], for which the EC50 in test [1] (setting [5]) and in test [2] (setting [6]) was above 5000 nM throughout.
Turning to `CCCCCCCCCCCCNC(=O)[C@@H]1CN(C(=O)c2ccc(C(=O)N3C[C@@H](C(=O)NCCCCCCCCCCCC)[C@H](C(=O)NCCCCCCCCCCCC)C3)cc2)C[C@H]1C(=O)NCCCCCCCCCCCC` [Compound 142, (3S,3′S,4S,4′S)-1,1′-Terephthaloylbis(N^3,N^4-didodecylpyrrolidine-3,4-dicarboxamide)], the EC50 in test [1] (setting [5]) and in test [2] (setting [6]) was above 5000 nM throughout.
`CCCCCCCCCCNC(=O)[C@@H]1CN(C(=O)c2ccc(C(=O)N3C[C@@H](C(=O)NCCCCCCCCCC)[C@H](C(=O)NCCCCCCCCCC)C3)cc2)C[C@H]1C(=O)NCCCCCCCCCC` [Compound 143, (3S,3′S,4S,4′S)-1,1′-Terephthaloylbis(N^3,N^4-didecylpyrrolidine-3,4-dicarboxamide)]: the EC50 in test [1] (setting [5]) and in test [2] (setting [6]) was above 5000 nM each time.
Turning to `CCCCCCCCNC(=O)[C@@H]1CN(C(=O)c2ccc(C(=O)N3C[C@@H](C(=O)NCCCCCCCC)[C@H](C(=O)NCCCCCCCC)C3)cc2)C[C@H]1C(=O)NCCCCCCCC` [Compound 144, (3S,3′S,4S,4′S)-1,1′-Terephthaloylbis(N^3,N^4-dioctylpyrrolidine-3,4-dicarboxamide)], the EC50 in test [1] (setting [5]) and in test [2] (setting [6]) was above 5000 nM each time.
In the case of `CCCCCCNC(=O)[C@@H]1CN(C(=O)c2ccc(C(=O)N3C[C@@H](C(=O)NCCCCCC)[C@H](C(=O)NCCCCCC)C3)cc2)C[C@H]1C(=O)NCCCCCC` [Compound 145, (3S,3′S,4S,4′S)-1,1′-Terephthaloylbis(N^3,N^4-dihexylpyrrolidine-3,4-dicarboxamide)], the EC50 in test [1] (setting [5]) and in test [2] (setting [6]) was above 5000 nM in each case.
Regarding `CCCCNC(=O)[C@@H]1CN(C(=O)c2ccc(C(=O)N3C[C@@H](C(=O)NCCCC)[C@H](C(=O)NCCCC)C3)cc2)C[C@H]1C(=O)NCCCC` [Compound 146, (3S,3′S,4S,4′S)-1,1′-Terephthaloylbis(N^3,N^4-dibutylpyrrolidine-3,4-dicarboxamide)], the EC50 in test [1] (setting [5]) and in test [2] (setting [6]) was above 5000 nM in each case.
Regarding `CC(C)(C)OC(=O)COc1cc(C(=O)N2C[C@@H](C(=O)N[C@H]3C[C@@H]3c3ccccc3)[C@H](C(=O)N[C@H]3C[C@@H]3c3ccccc3)C2)ccc1C(=O)N1C[C@@H](C(=O)N[C@H]2CC2c2ccccc2)[C@H](C(=O)N[C@H]2C[C@@H]2c2ccccc2)C1` (stereo partly drawn) [Compound 147, tert-Butyl 2-(2,5-Bis((3S,4S)-3,4-bis(((1S,2R)-2-phenylcyclopropyl)carbamoyl)-pyrrolidine-1-carbonyl)phenoxy)acetate], the EC50 in test [1] (setting [7]) came to 260 nM; in test [2] (setting [8]), 40 nM.
The matching figures for `CC(C)(C)OC(=O)CCOCCOCCOCCOc1cc(C(=O)N2C[C@@H](C(=O)N[C@H]3C[C@@H]3c3ccccc3)[C@H](C(=O)N[C@H]3C[C@@H]3c3ccccc3)C2)ccc1C(=O)N1C[C@@H](C(=O)N[C@H]2C[C@@H]2c2ccccc2)[C@H](C(=O)N[C@H]2C[C@@H]2c2ccccc2)C1` [Compound 148, tert-Butyl 3-(2-(2-(2-(2,5-Bis((3S,4S)-3,4-bis(((1S,2R)-2-phenyl-cyclopropyl)carbamoyl)-pyrrolidine-1-carbonyl)-phenoxy)ethoxy)ethoxy)-ethoxy)propanoate]: above 5000 nM and 190 nM.
